Values after ≈ are worked out from the molar mass of the structure shown. Where a name gives a salt, the structure may show the parent alone.
Columns and labels:
[1] = tested on: BT474 (human breast carcinoma); assay: Methylene Blue Growth Inhibition assay, BT474; type: cell-based; settings: BT-474, 72 h, BT474, 3 days
Procedure: (§1) Cellular Assays: Methylene Blue Growth Inhibition assay
(§2) Tumor cell lines used in this assay were BT474 (human breast carcinoma) and LNCaP (lymph node metastasis of prostate cancer). HFF (normal human foreskin fibroblast) was also included. All cell lines were cultured in RPMI 1640 media (Invitrogen Corporation 22400-071) containing 10% Fetal Bovine Serum (FBS) at 37° C. in a humidified 5% CO2 incubator. Cells were harvested using trypsin/EDTA, counted using a hemacytometer and plated in 96-well tissue culture plates (Costar 35-3075), 100 uL per well, at the following densities: BT474 15,000 cells/well, LNCaP 5,000 cells/well and HFF 5,000 cells/well. 10 mM stocks of compounds in DMSO were serially diluted in DMSO through nine 3-fold dilutions in 96-well plates (Costar Corning 3363), and stored at −80 C. The next day, compound dilutions were thawed and 4 uL of each transferred to 662 uL RPMI 1640+100 ug/mL gentamicin, resulting in twice the final required test concentrations. 100 uL of compounds diluted in RPMI 1640 were added to all cell lines. The final concentration of DMSO in all wells, including controls, was 0.3%. Cells were incubated at 37 C, 5% CO2 for 3 days. Medium was removed by aspiration. Cell biomass was estimated by staining cells with 80 uL methylene blue (Sigma M9140, 0.5% in 50:50 ethanol:water), and incubating at room temperature for 1 hour. Stain was aspirated and the plates rinsed by immersion in water, then air-dried. Stain was released from cells by adding 100 uL of solubilizing solution (1% N-lauroyl sarcosine, sodium salt, Sigma L5125, in PBS) and incubating at room temperature for at least 30 minutes. Plates were shaken and the optical density at 620 nm was measured on a microplate reader. Percent inhibition of cell growth was calculated relative to vehicle-treated control wells. Concentration of compound that inhibits 50% of cell growth (IC50) was interpolated using non-linear regression (Levenberg-Marquadt) and the equation, y=Vmax*(1−(x̂n/K̂n+x̂n)))+Y2. [Ref: Mager, M. E. (1972) Data Analysis in Biochemistry and Biophysics. New York: Academic Press]

[2] = tested on: LNCaP (lymph node metastasis of prostate cancer); assay: Methylene Blue Growth Inhibition assay, LNCaP; type: cell-based; settings: Homo sapiens, 72 h, 3 days
Procedure: as §1, §2

[3] = tested on: HFF (normal human foreskin fibroblast); assay: Methylene Blue Growth Inhibition assay, HFF; type: cell-based; settings: 72 h, HFF normal cells, 3 days
Procedure: as §1, §2

[4] = Solubility in 50 mM phosphate buffer at pH 7.4; type: physicochemical; settings: for solubility: 50 mM phosphate buffer, pH 7.4, aqueous buffer; for Solubility (statement in words): suitability for IV dosage forms, solubility in water
[5] = target: T1, FL AKT2 (Homo sapiens, UniProt P31751); assay: Full-length AKT enzyme assay (substrate phosphorylation, SPA); type: biochemical; settings: 4 uM ATP
T1 construct: 0.008 uM, FL AKT2 in the above full-length AKT enzyme assay

[6] = target: FL AKT1 (Homo sapiens, UniProt P31749); assay: as above; type: biochemical; settings: 4 uM ATP
Sequence of FL AKT1 (P31749 whole entry): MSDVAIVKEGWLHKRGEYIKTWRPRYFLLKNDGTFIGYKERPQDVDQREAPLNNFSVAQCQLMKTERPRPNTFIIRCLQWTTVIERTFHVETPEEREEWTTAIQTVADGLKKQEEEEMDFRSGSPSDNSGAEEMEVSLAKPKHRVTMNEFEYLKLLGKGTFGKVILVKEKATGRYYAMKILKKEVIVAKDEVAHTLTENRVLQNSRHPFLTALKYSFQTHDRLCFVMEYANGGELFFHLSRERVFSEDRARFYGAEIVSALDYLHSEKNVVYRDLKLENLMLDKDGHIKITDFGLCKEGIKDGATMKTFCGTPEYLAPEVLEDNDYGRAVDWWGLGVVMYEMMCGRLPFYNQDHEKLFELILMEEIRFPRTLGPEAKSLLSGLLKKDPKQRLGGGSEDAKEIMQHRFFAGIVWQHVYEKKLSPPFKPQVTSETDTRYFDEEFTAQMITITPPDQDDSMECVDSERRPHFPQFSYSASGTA

T1 sequence (P31751 whole entry): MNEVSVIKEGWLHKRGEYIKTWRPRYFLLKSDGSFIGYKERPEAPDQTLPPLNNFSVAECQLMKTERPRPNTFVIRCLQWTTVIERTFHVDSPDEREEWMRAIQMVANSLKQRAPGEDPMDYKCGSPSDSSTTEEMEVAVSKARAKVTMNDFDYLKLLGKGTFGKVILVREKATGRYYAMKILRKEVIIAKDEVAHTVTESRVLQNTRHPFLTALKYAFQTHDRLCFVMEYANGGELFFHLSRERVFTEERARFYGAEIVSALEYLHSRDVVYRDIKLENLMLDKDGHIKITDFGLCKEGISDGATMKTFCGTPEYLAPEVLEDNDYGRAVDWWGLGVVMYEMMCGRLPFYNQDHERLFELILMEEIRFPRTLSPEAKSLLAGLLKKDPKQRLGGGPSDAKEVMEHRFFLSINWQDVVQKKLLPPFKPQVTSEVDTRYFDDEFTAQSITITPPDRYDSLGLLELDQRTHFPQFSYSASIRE

Compound | IC50 [1] [nM] | IC50 [2] [nM] | solubility [4] [µM] | IC50 [5] [nM] | IC50 [6] [nM] | IC50 [3] [nM] | Solubility (statement in words) [4]
CCn1c(-c2nonc2N)nc2c(-c3ccccc3)ncc(OCCCN3CCOCC3)c21 [Compound R, 4-(1-ethyl-7-{[3-(4-morpholinyl)propyl]oxy}-4-phenyl-1H-imidazo[4,5-c]pyridin-2-yl)-1,2,5-oxadiazol-3-amine trifluoroacetate] | 17700 | 1420 |  |  |  | 19900 | 
CCn1c(-c2nonc2N)nc2c(-c3ccccc3)ncc(OCC(O)CN3CCOCC3)c21 (stereo not shown) [Compound S, 1-{[2-(4-amino-1,2,5-oxadiazol-3-yl)-1-ethyl-4-phenyl-1H-imidazo[4,5-c]pyridin-7-yl]oxy}-3-(4-morpholinyl)-2-propanol trifluoroacetate] | > 30000 | 7770 |  |  |  | > 30000 | 
CCn1c(-c2nonc2N)nc2c(-c3ccccc3)ncc(OCCN3CCOCC3)c21 [Compound T, 4-(1-ethyl-7-{[2-(4-morpholinyl)ethyl]oxy}-4-phenyl-1H-imidazo[4,5-c]pyridin-2-yl)-1,2,5-oxadiazol-3-amine trifluoroacetate] | > 30000 | > 30000 |  |  |  | 18900 | 
CCn1c(-c2nonc2N)nc2cncc(OC3CCNCC3)c21.O=C(O)C(F)(F)F [Compound U, 4-[1-ethyl-7-(piperidin-4-yloxy)-1H-imidazo[4,5-c]pyridine-2-yl]-furazan-3-ylamine trifluoroacetate] | 4510 |  | 200 |  |  | 6470 | 
CCn1c(-c2nonc2N)nc2c(C#CC(C)(C)O)ncc(OCCCCN)c21.O=C(O)C(F)(F)F [Compound W, 4-[7-[(4-aminobutyl)oxy]-2-(4-amino-1,2,5-oxadiazol-3-yl)-1-ethyl-1H-imidazo[4,5-c]pyridin-4-yl}-2-methyl-3-butyn-2-ol trifluoroacetate] | 8210 | 836 | 210 |  |  | 22100 | 
CCn1c(-c2nonc2N)nc2c(C#CC(C)(C)O)ncc(OCC3CCNCC3)c21.O=C(O)C(F)(F)F [Compound Y, 4-{2-(4-amino-1,2,5-oxadiazol-3-yl)-1-ethyl-7-[(4-piperidinylmethyl)oxy]-1H-imidazo[4,5-c]pyridin-4-yl}-2-methyl-3-butyn-2-ol trifluoroacetate] | 2590 | 217 | 159 |  |  | > 30000 | 

Now those with a lower IC50 [1], led by results:

IC50 [1] [nM] | IC50 [2] [nM] | solubility [4] [µM] | IC50 [5] [nM] | IC50 [6] [nM] | Compound | IC50 [3] [nM] | Solubility (statement in words) [4]
1870 | 1640 | 9 |  |  | CCn1c(-c2nonc2N)nc2c(-c3ccccc3)ncc(OCC3CCCNC3)c21.O=C(O)C(F)(F)F (stereo not shown) [Compound V, 4-{1-ethyl-4-phenyl-7-[(3-piperidinylmethyl)oxy]-1H-imidazo-[4,5-c]pyridin-2-yl}-1,2,5-oxadiazol-3-amine trifluoroacetate] | 570 | 
266 | 48 | 37 (≈ 19.2 µg/mL) |  |  | CCn1c(-c2nonc2N)nc2c(C#CC(C)(C)O)ncc(OCCCNCCc3ccc(OC)cc3)c21 [Compound Z, 4-(2-(4-amino-1,2,5-oxadiazol-3-yl)-1-ethyl-7-{[3-({2-[4-(methyloxy)phenyl]ethyl}amino)propyl]oxy}-1H-imidazo[4,5-c]pyridin-4-yl)-2-methyl-3-butyn-2-ol] | 5510 | 
255 | 65 | 200 (≈ 87.9 µg/mL) |  |  | CCn1c(-c2nonc2N)nc2c(C#CC(C)(C)O)ncc(OCC[C@@H]3CCCCN3)c21 [Example 2, 4-[2-(4-amino-1,2,5-oxadiazol-3-yl)-1-ethyl-7-({2-[(2S)-2-Piperidinyl]ethyl}oxy)-1H-imidazo[4,5-c]pyridin-4-yl]-2-methyl-3-butyn-2-ol] | 14200 | suitable for formulation into dosage forms for IV administration
241 | 258 | 173 |  |  | CCn1c(-c2nonc2N)nc2c(C#CC(C)(C)O)ncc(OCCCN)c21.O=C(O)C(F)(F)F [Compound X, 4-{2-(4-amino-1,2,5-oxadiazol-3-yl)-7-[(3-aminopropyl)oxy]-1-ethyl-1H-imidazo[4,5-c]pyridin-4-yl}-2-methyl-3-butyn-2-ol trifluoroacetate] | 18100 | 
176 | 52 | 222 (≈ 94.5 µg/mL) | 8 | 2 | CCn1c(-c2nonc2N)nc2c(C#CC(C)(C)O)ncc(OCC[C@@H]3CCCN3)c21 [Example 1, 4-[2-(4-amino-1,2,5-oxadiazol-3-yl)-1-ethyl-7-({2-[(2S)-2-pyrrolidinyl]ethyl}oxy)-1H-imidazo[4,5-c]pyridin-4-yl]-2-methyl-3-butyn-2-ol] | 12600 | suitable for formulation into dosage forms for IV administration
26 | 7 | 7 (≈ 3.2 µg/mL) |  |  | CCn1c(-c2nonc2N)nc2c(C#CC(C)(C)O)ncc(OCCC3CSCCN3)c21 (stereo not shown) [Example 3, 4-(2-(4-amino-1,2,5-oxadiazol-3-yl)-1-ethyl-7-{[2-(3-thiomorpholinyl)ethyl]oxy}-1H-imidazo[4,5-c]pyridin-4-yl)-2-methyl-3-butyn-2-ol] | 3590 | suitable for formulation into dosage forms for IV administration
